pIC50: −log10 of the molar value. Activity calls are given as the source filed them. No cut-off for these calls is given here.
Key:
[1] = Half life in C57/BI mouse at 2 mg/kg, iv measured upto 24 hrs by LC-MS/MS analysis; type: ADME, organism-based; conditions: in vivo
[2] = Oral bioavailability in Wistar Han rat at 10 mg/kg measured upto 24 hrs by LC-MS/MS analysis; type: ADME, organism-based; conditions: in vivo
[3] = Volume of distribution at steady state in C57/BI mouse at 10 mg/kg, po or 2 mg/kg, iv measured upto 24 hrs by LC-MS/MS analysis; type: ADME, organism-based; conditions: in vivo
[4] = target: T1, Protein deacetylase HDAC6 (Homo sapiens, UniProt Q9UBN7); experiment: Inhibition of HDAC6 (unknown origin) incubated for 30 mins
T1 sequence (Q9UBN7 whole entry): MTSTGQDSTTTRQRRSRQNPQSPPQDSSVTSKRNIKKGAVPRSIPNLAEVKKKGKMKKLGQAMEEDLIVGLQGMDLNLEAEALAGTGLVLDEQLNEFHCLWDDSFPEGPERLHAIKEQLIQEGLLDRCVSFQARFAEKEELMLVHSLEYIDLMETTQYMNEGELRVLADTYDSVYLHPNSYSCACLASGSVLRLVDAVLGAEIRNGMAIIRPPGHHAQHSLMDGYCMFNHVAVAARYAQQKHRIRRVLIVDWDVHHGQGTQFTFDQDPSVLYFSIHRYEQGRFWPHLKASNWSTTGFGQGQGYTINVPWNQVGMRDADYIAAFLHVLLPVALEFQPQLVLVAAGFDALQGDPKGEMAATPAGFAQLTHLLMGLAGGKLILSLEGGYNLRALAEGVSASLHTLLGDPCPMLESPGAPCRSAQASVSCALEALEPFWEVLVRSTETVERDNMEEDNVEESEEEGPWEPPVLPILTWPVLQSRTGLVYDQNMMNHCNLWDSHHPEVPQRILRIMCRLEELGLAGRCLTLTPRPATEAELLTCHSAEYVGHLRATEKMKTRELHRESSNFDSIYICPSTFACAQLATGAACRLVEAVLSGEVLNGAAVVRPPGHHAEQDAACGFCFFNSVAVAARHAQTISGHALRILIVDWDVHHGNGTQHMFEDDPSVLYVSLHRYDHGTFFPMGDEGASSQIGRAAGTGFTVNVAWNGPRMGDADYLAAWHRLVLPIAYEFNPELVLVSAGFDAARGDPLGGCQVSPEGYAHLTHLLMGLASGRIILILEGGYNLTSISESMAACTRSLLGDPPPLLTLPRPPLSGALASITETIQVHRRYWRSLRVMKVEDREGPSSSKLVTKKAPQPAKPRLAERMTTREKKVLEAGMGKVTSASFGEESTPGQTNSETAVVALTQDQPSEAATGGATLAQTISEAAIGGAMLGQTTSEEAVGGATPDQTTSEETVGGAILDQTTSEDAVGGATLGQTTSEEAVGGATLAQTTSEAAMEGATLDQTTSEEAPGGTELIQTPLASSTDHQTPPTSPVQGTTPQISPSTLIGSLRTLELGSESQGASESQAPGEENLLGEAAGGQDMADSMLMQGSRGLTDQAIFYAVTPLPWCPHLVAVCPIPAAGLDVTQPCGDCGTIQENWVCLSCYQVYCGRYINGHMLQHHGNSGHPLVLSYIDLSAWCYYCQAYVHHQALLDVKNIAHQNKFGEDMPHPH

[5] = target: T1, Protein deacetylase HDAC6; experiment: Inhibition of HDAC6 (unknown origin) incubated for 20 hrs
[6] = target: cAMP and cAMP-inhibited cGMP 3',5'-cyclic phosphodiesterase 10A (Homo sapiens) (UniProt Q9Y233); experiment: Inhibition of PDE10A2 (unknown origin) at 91 uM relative to control
[7] = Plasma protein binding in rat assessed as unbound fraction; type: ADME, cell-free
[8] = Plasma protein binding in mouse assessed as unbound fraction; type: ADME, cell-free
[9] = AUC (0 to infinity) in Wistar Han rat at 1 mg/kg, po measured upto 24 hrs by LC-MS/MS analysis; type: ADME, organism-based; set-up: time < 24 hrs, dose 1 mg/kg, route po; conditions: in vivo
[10] = Half life in C57/BI mouse at 1 mg/kg, po measured upto 24 hrs by LC-MS/MS analysis; type: ADME, organism-based; conditions: in vivo
[11] = test system: Sodium-dependent noradrenaline transporter; experiment: Inhibition of NET (unknown origin) at 49 uM relative to control; conditions: Homo sapiens

cAMP and cAMP-inhibited cGMP 3',5'-cyclic phosphodiesterase 10A (Homo sapiens), sequence (Q9Y233 whole entry): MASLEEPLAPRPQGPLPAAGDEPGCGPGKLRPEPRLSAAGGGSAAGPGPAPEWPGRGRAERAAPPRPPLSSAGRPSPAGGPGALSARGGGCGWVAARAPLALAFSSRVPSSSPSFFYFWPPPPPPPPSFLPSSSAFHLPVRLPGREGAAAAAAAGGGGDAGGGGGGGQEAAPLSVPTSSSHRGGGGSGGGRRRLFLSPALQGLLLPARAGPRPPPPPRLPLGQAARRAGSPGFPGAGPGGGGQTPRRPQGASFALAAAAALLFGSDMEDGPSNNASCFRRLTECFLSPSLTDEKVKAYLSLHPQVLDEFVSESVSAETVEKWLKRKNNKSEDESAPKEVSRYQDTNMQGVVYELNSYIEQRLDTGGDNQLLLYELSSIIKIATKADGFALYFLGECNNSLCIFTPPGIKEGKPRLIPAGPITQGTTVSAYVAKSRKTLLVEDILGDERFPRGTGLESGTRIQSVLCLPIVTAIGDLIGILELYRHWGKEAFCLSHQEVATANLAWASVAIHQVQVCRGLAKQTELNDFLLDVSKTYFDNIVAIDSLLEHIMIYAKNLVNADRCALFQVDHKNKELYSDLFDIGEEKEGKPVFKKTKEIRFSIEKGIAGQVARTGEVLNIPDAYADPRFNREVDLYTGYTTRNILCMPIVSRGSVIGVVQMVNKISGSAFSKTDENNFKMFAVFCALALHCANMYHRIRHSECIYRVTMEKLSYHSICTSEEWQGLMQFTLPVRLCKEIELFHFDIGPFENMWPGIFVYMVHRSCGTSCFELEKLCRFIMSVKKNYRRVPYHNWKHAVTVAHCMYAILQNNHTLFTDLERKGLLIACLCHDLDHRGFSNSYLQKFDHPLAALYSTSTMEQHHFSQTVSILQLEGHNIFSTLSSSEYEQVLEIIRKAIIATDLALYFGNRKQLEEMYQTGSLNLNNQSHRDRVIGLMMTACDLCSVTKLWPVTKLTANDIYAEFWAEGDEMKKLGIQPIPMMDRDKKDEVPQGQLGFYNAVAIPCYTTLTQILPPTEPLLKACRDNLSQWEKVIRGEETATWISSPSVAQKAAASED

| half-life [1] | bioavailability [2] | Vdss [3] | pIC50 [4] | pIC50 [5] | inhibition [6] | fraction unbound [7] | fraction unbound [8] | AUC(0-inf) [9] | half-life [10] | inhibition [11] | Compound |
| --- | --- | --- | --- | --- | --- | --- | --- | --- | --- | --- | --- |
| 0.2 h | 19% | 1.6 L/kg |  |  |  |  |  |  |  |  | O=C(NO)c1cnc(NC2(c3ccccc3)CCC(F)(F)CC2)nc1 |
|  |  |  | 7.57 | 9.00 | Active | 0.38 | 0.27 | 15 µM·h | 5.3 h | Active | FC(F)c1nnc(-c2ccc(Cn3nnc(-c4ccccn4)n3)nc2)o1 |

Reference: ChEMBL document CHEMBL5370608, “Selective and Bioavailable HDAC6 2-(Difluoromethyl)-1,3,4-oxadiazole Substrate Inhibitors and Modeling of Their Bioactivation Mechanism” (J Med Chem, 2023)
